Experimental findings from patent US9284333B2, “Fused pyrroledicarboxamides and their use as pharmaceuticals” (SANOFI, priority 2012, dated 2016) are described below.

Chain of Human TASK-1 channels (O14649 whole entry): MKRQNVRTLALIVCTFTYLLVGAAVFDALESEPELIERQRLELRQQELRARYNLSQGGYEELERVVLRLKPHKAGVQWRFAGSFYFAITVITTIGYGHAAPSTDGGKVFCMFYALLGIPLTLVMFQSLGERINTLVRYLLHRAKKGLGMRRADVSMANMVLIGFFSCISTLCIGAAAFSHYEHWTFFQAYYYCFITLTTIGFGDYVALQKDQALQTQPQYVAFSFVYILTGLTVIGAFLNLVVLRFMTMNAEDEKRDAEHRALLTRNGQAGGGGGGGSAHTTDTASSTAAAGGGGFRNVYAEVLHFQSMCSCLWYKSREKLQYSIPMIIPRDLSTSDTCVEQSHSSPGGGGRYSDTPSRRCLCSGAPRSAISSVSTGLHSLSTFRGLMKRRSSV

The first test has as its target Human TASK-1 channels (Homo sapiens (Human), UniProt O14649). As to the kind of experiment: Determination of the activity on the TASK-1 channel in Xenopus oocytes (two-microelectrode voltage clamp). It is filed as cell-based. The following applies: compound concentration 5 μM. Summed up: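 Current during 500 ms pulses to 40 mV from a −90 mV hold was recorded in oocytes expressing human TASK-1 for two days after cRNA injection. Compounds were added cumulatively to the ND96 bath (pH 7.4, room temperature). IC50 came from dose-response fitting of inhibition relative to pre-compound current.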
A word on the inhibition: it is how much of the control response was suppressed. `CC[C@@H](NC(=O)c1cc(C(=O)N2CCC[C@@H]2C)n2c1COCC2)c1ncccc1OC` [16ao, 6-((S)-2-Methyl-pyrrolidine-1-carbonyl)-3,4-dihydro-1H-pyrrolo[2,1-c][1,4]oxazine-8-carboxylic acid [(R)-1-(3-methoxy-pyridin-2-yl)-propyl]-amide] returned an inhibition at 5 µM of 83%.

The same test, now with this note: human TASK-1 expressed in Xenopus oocytes, room temperature; read-out: IC50 value for TASK-1 inhibition.
Usually IC50 stands for the concentration at which inhibition is half-maximal. As to `CC[C@@H](NC(=O)c1cc(C(=O)N[C@H](CC)c2cccnc2OC)n2c1COCC2)c1ccccc1` [16ig, 3,4-Dihydro-1H-pyrrolo[2,1-c][1,4]oxazine-6,8-dicarboxylic acid 6-{[(R)-1-(2-methoxy-pyridin-3-yl)-propyl]-amide} 8-[((R)-1-phenyl-propyl)-amide]], the IC50 turned out to be 240 nM.
The same measure, in the same setting: then `C[C@H]1CCCN1C(=O)c1cc(C(=O)NCc2c(F)cccc2Cl)c2n1CCOC2` [16nu, 6-((S)-2-Methyl-pyrrolidine-1-carbonyl)-3,4-dihydro-1H-pyrrolo[2,1-c][1,4]oxazine-8-carboxylic acid 2-chloro-6-fluoro-benzylamide], with 150 nM.
For the molecule `CC[C@@H](NC(=O)c1cc(C(=O)N2CCC[C@@H]2C)n2c1COCC2)c1ccc(C(F)(F)F)nc1Cl` [16cc, 6-((S)-2-Methyl-pyrrolidine-1-carbonyl)-3,4-dihydro-1H-pyrrolo[2,1-c][1,4]oxazine-8-carboxylic acid [(R)-1-(2-chloro-6-trifluoromethyl-pyridin-3-yl)-propyl]-amide], the IC50 amounted to 65 nM.
Consider `CC[C@@H](NC(=O)c1cc(C(=O)N[C@H](C)c2ccc(F)cc2)n2c1CSC2)c1ccccc1` [16ky, 1H-Pyrrolo[1,2-c]thiazole-5,7-dicarboxylic acid 5-{[(R)-1-(4-fluoro-phenyl)-ethyl]-amide} 7-[((R)-1-phenyl-propyl)-amide]], for which the IC50 turned out to be 33 nM.
Still for that read-out and setting: then `CC[C@@H](NC(=O)c1cc(C(=O)NCc2cnccn2)n2c1COCC2)c1ccc(F)cc1Cl` [16no, 3,4-Dihydro-1H-pyrrolo[2,1-c][1,4]oxazine-6,8-dicarboxylic acid 8-{[(R)-1-(2-chloro-4-fluoro-phenyl)-propyl]-amide} 6-[(pyrazin-2-ylmethyl)-amide]], with 170 nM.
The same measure, in the same setting: then `CC[C@@H](NC(=O)c1cc(C(=O)N2CCC[C@@H]2C)n2c1COCC2)c1cc(F)c(C#N)c(F)c1` [16ca, 6-((S)-2-Methyl-pyrrolidine-1-carbonyl)-3,4-dihydro-1H-pyrrolo[2,1-c][1,4]oxazine-8-carboxylic acid [(R)-1-(4-cyano-3,5-difluoro-phenyl)-propyl]-amide], with 340 nM; and `CC[C@@H](NC(=O)c1cc(C(=O)NCc2cccc(C#N)c2)n2c1COCC2)c1ccccc1` [16gs, 3,4-Dihydro-1H-pyrrolo[2,1-c][1,4]oxazine-6,8-dicarboxylic acid 6-(3-cyano-benzylamide) 8-[((R)-1-phenyl-propyl)-amide]], with 250 nM; and `CC[C@@H](NC(=O)c1cc(C(=O)Nc2nc(C)c(C)s2)c2n1CCCC2)c1ccccc1` [16me, 5,6,7,8-Tetrahydro-indolizine-1,3-dicarboxylic acid 3-[((R)-1-phenyl-propyl)-amide] 1-[(4,5-dimethyl-thiazol-2-yl)-amide]], with 340 nM.
On the same count and under the same terms, then `CC[C@@H](NC(=O)c1cc(C(=O)N2CCC[C@@H]2C)n2c1COCC2)c1c(F)cc(C(F)(F)F)cc1F` [16cl, 6-((S)-2-Methyl-pyrrolidine-1-carbonyl)-3,4-dihydro-1H-pyrrolo[2,1-c][1,4]oxazine-8-carboxylic acid [(R)-1-(2,6-difluoro-4-trifluoromethyl-phenyl)-propyl]-amide], with 50 nM.
Take `CC[C@@H](NC(=O)c1cc(C(=O)NC(C)c2cnc(OC)cn2)n2c1COCC2)c1ccccc1` (stereo partly drawn) [16iv, 3,4-Dihydro-1H-pyrrolo[2,1-c][1,4]oxazine-6,8-dicarboxylic acid 6-{[1-(5-methoxy-pyrazin-2-yl)-ethyl]-amide} 8-[((R)-1-phenyl-propyl)-amide]]: the IC50 worked out at 120 nM.
Still for that read-out and setting: for `CC[C@@H](NC(=O)c1cc(C(=O)NCC2(O)CC2)n2c1COCC2)c1ccccc1` [16hi, 3,4-Dihydro-1H-pyrrolo[2,1-c][1,4]oxazine-6,8-dicarboxylic acid 6-[(1-hydroxy-cyclopropylmethyl)-amide] 8-[((R)-1-phenyl-propyl)-amide]] the value was 1100 nM.
Same read-out and setting: for `CC[C@@H](NC(=O)c1cc(C(=O)N[C@H](C)c2ccc(F)cc2)n2c1COCC2)c1ncccn1` [16dz, 3,4-Dihydro-1H-pyrrolo[2,1-c][1,4]oxazine-6,8-dicarboxylic acid 6-{[(R)-1-(4-fluoro-phenyl)-ethyl]-amide} 8-[((R)-1-pyrimidin-2-yl-propyl)-amide]] the value was 220 nM; for `CC[C@@H](NC(=O)c1cc(C(=O)N2CCCC2C2CC2)n2c1COCC2)c1ccccc1` (stereo partly drawn) [16gb, 6-(2-Cyclopropyl-pyrrolidine-1-carbonyl)-3,4-dihydro-1H-pyrrolo[2,1-c][1,4]oxazine-8-carboxylic acid ((R)-1-phenyl-propyl)-amide], 450 nM; for `CC[C@@H](NC(=O)c1cc(C(=O)N2CCCC2c2c(C)noc2C)n2c1COCC2)c1ccccc1` (stereo partly drawn) [16er, 6-[2-(3,5-Dimethyl-isoxazol-4-yl)-pyrrolidine-1-carbonyl]-3,4-dihydro-1H-pyrrolo[2,1-c][1,4]oxazine-8-carboxylic acid ((R)-1-phenyl-propyl)-amide], 320 nM.
Still for that read-out and setting: for `CC[C@@H](NC(=O)c1cc(C(=O)NCc2ccno2)n2c1COCC2)c1ccccc1` [16hf, 3,4-Dihydro-1H-pyrrolo[2,1-c][1,4]oxazine-6,8-dicarboxylic acid 6-[(isoxazol-5-ylmethyl)-amide] 8-[((R)-1-phenyl-propyl)-amide]] the value was 380 nM; for `CC[C@@H](NC(=O)c1cc(C(=O)NCc2ncn[nH]2)n2c1COCC2)c1ccccc1` [16ii, 3,4-Dihydro-1H-pyrrolo[2,1-c][1,4]oxazine-6,8-dicarboxylic acid 8-[((R)-1-phenyl-propyl)-amide] 6-[(2H-[1,2,4]triazol-3-ylmethyl)-amide]], 650 nM.
Turning to `CC[C@@H](NC(=O)c1cc(C(=O)N[C@H](CC)c2ccc(F)cc2)n2c1C(C)OCC2)c1ccccc1` (some centres unmarked) [16lh], the IC50 was determined as 190 nM.
With `CC[C@@H](NC(=O)c1cc(C(=O)N2CCC[C@@H]2C)n2c1COCC2)c1ccc(C#N)cc1` [16ak, 6-((S)-2-Methyl-pyrrolidine-1-carbonyl)-3,4-dihydro-1H-pyrrolo[2,1-c][1,4]oxazine-8-carboxylic acid [(R)-1-(4-cyano-phenyl)-propyl]-amide], the IC50 came out at 1300 nM.
The same measure, in the same setting: for `CC[C@@H](NC(=O)c1cc(C(=O)N[C@@H](C)c2ccc(F)cc2)n2c1COCC2)c1ccccc1` [16ht, 3,4-Dihydro-1H-pyrrolo[2,1-c][1,4]oxazine-6,8-dicarboxylic acid 6-{[(S)-1-(4-fluoro-phenyl)-ethyl]-amide} 8-[((R)-1-phenyl-propyl)-amide]] the value was 70 nM; for `CC[C@H](NC(=O)c1cc(C(=O)N[C@H](CC)c2ccccc2)c2n1CCOC2)c1ccccc1` [16hs, 3,4-Dihydro-1H-pyrrolo[2,1-c][1,4]oxazine-6,8-dicarboxylic acid 6-[((S)-1-phenyl-propyl)-amide] 8-[((R)-1-phenyl-propyl)-amide]], 100 nM; for `CC[C@@H](NC(=O)c1cc(C(=O)NC(C2CC2)C2CC2)n2c1COCC2)c1ccccc1` [16hb, 3,4-Dihydro-1H-pyrrolo[2,1-c][1,4]oxazine-6,8-dicarboxylic acid 6-dicyclopropylmethyl-amide 8-[((R)-1-phenyl-propyl)-amide]], 13 nM.
Same read-out and setting: for “3,4-Dihydro-1H-pyrrolo[2,1-c][1,4]oxazine-6,8-dicarboxylic acid 6-{[(R)-1-(4-fluoro-phenyl)-ethyl]-amide} 8-{[(S)-1-(5-methoxy-pyrazin-2-yl)-propyl]-amide} [16dv]” the value was 190 nM.
For `CCC(NC(=O)c1cc(C(=O)N2CCC[C@@H]2C)n2c1COCC2)c1ccc(C(C)(F)F)cc1` (stereo partly drawn) [16bc, 6-((S)-2-Methyl-pyrrolidine-1-carbonyl)-3,4-dihydro-1H-pyrrolo[2,1-c][1,4]oxazine-8-carboxylic acid {1-[4-(1,1-difluoro-ethyl)-phenyl]-propyl}-amide], the 50% inhibitory concentration (IC50) was 550 nM.
On to `CC[C@H](NC(=O)c1cc(C(=O)N[C@H](C)c2ccc(F)cc2)c2n1CCOC2)c1ncccn1` [16nw, 3,4-Dihydro-1H-pyrrolo[2,1-c][1,4]oxazine-6,8-dicarboxylic acid 8-{[(R)-1-(4-fluoro-phenyl)-ethyl]-amide} 6-[((S)-1-pyrimidin-2-yl-propyl)-amide]], for which the IC50 stood at 200 nM.
The same measure, in the same setting: for `CC[C@@H](NC(=O)c1cc(C(=O)N2CCC[C@@H]2C)n2c1COCC2)c1ccc(C#N)nc1` [16aa, 6-((S)-2-Methyl-pyrrolidine-1-carbonyl)-3,4-dihydro-1H-pyrrolo[2,1-c][1,4]oxazine-8-carboxylic acid [(R)-1-(6-cyano-pyridin-3-yl)-propyl]-amide] the value was 2400 nM; for `CC[C@@H](NC(=O)c1cc(C(=O)Nc2nc(C)c(C)s2)c2n1CCOC2)c1ccccc1` [16ju, 3,4-Dihydro-1H-pyrrolo[2,1-c][1,4]oxazine-6,8-dicarboxylic acid 8-[(4,5-dimethyl-thiazol-2-yl)-amide] 6-[((R)-1-phenyl-propyl)-amide]], 940 nM; for `CC[C@@H](NC(=O)c1cc(C(=O)N[C@H](C)c2ccc(F)cc2)n2c1CSCC2)c1ccccc1` [16la, 3,4-Dihydro-1H-pyrrolo[2,1-c][1,4]thiazine-6,8-dicarboxylic acid 6-{[(R)-1-(4-fluoro-phenyl)-ethyl]-amide} 8-[((R)-1-phenyl-propyl)-amide]], 150 nM.
Regarding `CC[C@@H](NC(=O)c1cc(C(=O)N2CCOC[C@@H]2C)c2n1CCOC2)c1ccccc1` [16kh, 8-((S)-3-Methyl-morpholine-4-carbonyl)-3,4-dihydro-1H-pyrrolo[2,1-c][1,4]oxazine-6-carboxylic acid ((R)-1-phenyl-propyl)-amide], the IC50 came out at 990 nM.
